The numbers were not newly measured in patent publication EP4420767A1, “MODULAR GREEN SOLVENT COMPOSITION FOR PREPARING POLYMERIC MEMBRANES” (Soft Chemicals S.r.l., priority 2023, dated 2024), which cites them from elsewhere.

For this series the following is noted: DMSO alone.

`C[S+](C)[O-]` [DMSO, Dimethyl sulfoxide]: the freezing point is 18 °C.
